Measured values as given in patent US20040162432A1, “Substituted octahydrophenanthrene compounds and use thereof as NMDA antagonists” (priority 2001, published 2004).

Experiments:
[1] = tested on: (+)-MK801 binding site of the ionotropic NMDA receptor; experiment: (3H)-(+)-MK801 receptor binding test on rat brain membrane homogenates; conditions: 10 μmol/l compound; ligand (3H)-(+)-MK801; rat brain membrane homogenate; triplicate batches
Protocol: The investigations for determining the affinity of the octahydrophenanthrene compounds of the general formula I according to the invention with the (+)-MK801 binding site of the ionotropic NMDA receptor was performed on brain membrane homogenates (homogenate of rat brain without the cerebellum, pons and medulla oblongata of male rats, Wistar strain, Charles River, WIGA GmbH, Sulzbach, Germany) as described in B. M. Baron et al., Journal of Pharmacology and Experimental Therapeutics, vol. 279, pages 62-68, 1996. The corresponding literature description is hereby introduced as a reference and is deemed to be part of the disclosure.
To this end, after separation of the cerebellum, pons and medulla oblongata, freshly prepared rat brains were disrupted for 1 minute with a Polytron homogeniser at 6,000 rpm in 50 mmol/l of tris/HCl (pH 7.7) with ice cooling and were then centrifuged for 15 min at 4° C. and 60,000 g. After decanting off and discarding the supernatant, resuspending the membrane pellet in 50 mmol/l of tris/HCl (pH 7.7) and disrupting it with a homogeniser at 2,000 rpm for 1 minute, centrifuging was again performed for 15 min at 4° C. and 60,000 g. The supernatant was again discarded and the membrane pellet was homogenised in 50 mmol/l of tris/HCl (pH 7.7) (2,000 rpm for 1 minute) and frozen in aliquots at −70° C.
Aliquots were in each case thawed for the receptor binding test and then centrifuged for 15 min at 4° C. and 60,000 g. After decanting off and discarding the supernatant, the membrane pellet was suspended for the binding test with binding test buffer and homogenised (2,000 rpm for 1 minute).
The buffer used for the binding test was a buffer of 5 mmol/l of tris/HCl (pH 7.7), supplemented with 30 μmol/l of glycine and 100 μmol/l of glutamic acid.
The radioactively labelled ligand used was […] of (^3H)-(+)-MK801 ((5R,10S)-(+)-5-methyl-10,11-dihydro-5H-dibenzo(a,d)cyclohepten-5,10-imine). The level of non-specific binding was determined in the presence of 10 μmol/l of non-radioactively labelled (+)-MK801.
were added in concentration series and the displacement of the radioactive ligand from its specific binding on the NMDA receptor was determined. Each of the triplicate batches was incubated for 40 minutes at 25° C. and then harvested by filtration through glass fibre filters (GF/B) in order to determine the radioactive ligand bound to the brain membrane homogenate. The radioactivity retained on the glass fibre filter disk was measured, after addition of scintillating liquid, in the β-counter.
The percentage inhibition of the specific binding of the ligand (^3H)-(+)-MK801 obtained from triplicate batches in the presence of in each case 10 μmol/l of the substituted octahydrophenanthrene compounds of the general formula I is stated in Table 1 and serves as a measure of the affinity of the compounds of the general formula I according to the invention with the (+)-MK801 binding site of the ionotropic NMDA receptor.

[2] = tested on: phenylquinone-induced writhing in mice; experiment: Writhing test in mice (phenylquinone-induced writhing); assay type: in vivo; conditions: male mice, phenylquinone i.p., writhing counted 5-20 minutes after phenylquinone
Protocol: The analgesic efficacy of the compounds according to the invention was investigated by phenylquinone-induced writhing in mice, modified after I.C. Hendershot, J. Forsaith in J. Pharmacol. Exp. There. 125, 237-240 (1959). Male mice weighing 25-30 g were used for this purpose. Groups of 10 animals per substance dose received, 1.0 minute after intravenous administration of the substances tested, 0.3 ml/mouse of a 0.02% aqueous solution of phenylquinone (phenylbenzoquinone, Sigma, Deisenhofen; solution prepared with addition of 5% of ethanol and stored in a water bath at 45° C.) administered intraperitoneally. The animals were then placed individually in observation cages. A push button counter was used to record the number of pain-induced stretching movements (writhing reactions=straightening of the torso with stretching of the rear extremities) for 5-20 minutes after phenylquinone administration. The control was provided by animals who received only physiological common salt solution with phenylquinone.
All the substances were tested at the standard dosage of 10 mg/kg. The percentage inhibition (% inhibition) of the writhing reactions by a substance was calculated according to the following formula: [formula]

Compound	Percentage inhibition of (+)-MK801 binding at 10 μM [1]	Percentage inhibition of writhing reaction at 10 mg/kg i.v. [2]
CN(C)CC1CCCC2c3ccccc3CCC12.Cl (stereo not drawn) [Compound 1, 8-Dimethylaminomethyl-4b,5,6,7,8,8a,9,10-octahydrophenanthrene hydrochloride]	46%	74%
COc1ccc2c(c1)C1CCCC(CN(C)C)C1CC2.Cl (stereo not drawn) [Compound 2, 8-Dimethylaminomethyl-3-methoxy-4b,5,6,7,8,8a,9,10-octahydrophenanthrene hydrochloride]	56%	75%
CN(C)CC1CCCC2c3cc(O)ccc3CCC12.Cl (stereo not drawn) [Compound 3, 8-Dimethylaminomethyl-4b,5,6,7,8,8a,9,10-octahydrophenanthren-3-ol hydrochloride]	40%	85%
CN(C)CC1CCCC2c3ccc(F)cc3CCC12.Cl (stereo not drawn) [Compound 4, 8-Dimethylaminomethyl-2-fluoro-4b,5,6,7,8,8a,9,10-octahydrophenanthrene hydrochloride]	36%	–
CN(C)CC1CCCC2c3cc(Cl)ccc3CCC12.Cl (stereo not drawn) [Compound 5, 8-Dimethylaminomethyl-3-chloro-4b,5,6,7,8,8a,9,10-octahydrophenanthrene hydrochloride]	28%	–
CN(C)CC1CC(C(C)(C)C)CC2c3ccccc3CCC12.Cl (stereo not drawn) [Compound 6, 6-tert-Butyl-8-dimethylaminomethyl-4b,5,6,7,8,8a,9,10-octahydrophenanthrene hydrochloride]	31%	–
